Laboratory results taken from US9238656B2, “Imidazo[4,5-b]pyridine derivatives as ALK and JAK modulators for the treatment of proliferative disorders” (priority 2012, dated 2016).
pIC50: −log10 of the molar value. Where “and” joins values, the source holds several entries; their conditions need not be identical. Identical values can stand only once.

Columns and labels:
[1] = target: baculovirus-expressed ALK (Homo sapiens, UniProt Q9UM73); test: ALK kinase inhibition, TRF/ELISA; type: biochemical; conditions: read-out: ALK Potency
Protocol: Briefly, each 96-well plate was coated with 100 μL/well of 10 μg/mL substrate (GST-PLC-γ) in Tris-buffered saline (TBS). […] The reaction was initiated by adding enzyme (30 ng/mL ALK) and was allowed to proceed at 37° C. for 15 minutes. Detection of the phosphorylated product was performed by adding 100 μL/well of Eu-N1 labeled PT66 antibody (Perkin Elmer #AD0041). […] Data analysis was performed using ActivityBase (IDBS, Guilford, UK). IC50 values were calculated by plotting percent inhibition versus log10 of the concentration of compound and fitting to the nonlinear regression sigmoidal dose-response (variable slope) equation in XLFit (IDBS, Guilford, UK).

[2] = target: baculovirus-expressed JAK2 kinase (Homo sapiens, UniProt O60674); test: biochemical; conditions: 0.2 μM ATP; read-out: JAK2 Potency
Protocol: Compounds were tested for their ability to inhibit the kinase activity of baculovirus-expressed JAK2 kinase using the time-resolved fluorescence (TRF) detection system. […] The plates were coated with 100 μL/well of 10 μg/mL Neutravidin (Pierce #31000, Rockford, Ill.) in TBS at 37° C. for 2 h, followed by 100 μL/well of 1 μg/mL 15-mer peptide substrate (biotinyl-amino-hexanoyl-[…]-amide, Infinity Biotech Research and Resource, Aston, Pa.) at 37° C. for 1 h. […] Enzyme (15 ng/mL JAK2) was added and the reaction was allowed to proceed at room temperature for 20 min. […] Inhibition data were analyzed using ActivityBase (IDBS, Guilford, UK). IC50 values were calculated by plotting percent inhibition versus log10 of the concentration of compound and fitting to the nonlinear regression sigmoidal dose-response (variable slope) equation in XLFit (IDBS, Guilford, UK).

baculovirus-expressed ALK, sequence (Q9UM73 19-1620): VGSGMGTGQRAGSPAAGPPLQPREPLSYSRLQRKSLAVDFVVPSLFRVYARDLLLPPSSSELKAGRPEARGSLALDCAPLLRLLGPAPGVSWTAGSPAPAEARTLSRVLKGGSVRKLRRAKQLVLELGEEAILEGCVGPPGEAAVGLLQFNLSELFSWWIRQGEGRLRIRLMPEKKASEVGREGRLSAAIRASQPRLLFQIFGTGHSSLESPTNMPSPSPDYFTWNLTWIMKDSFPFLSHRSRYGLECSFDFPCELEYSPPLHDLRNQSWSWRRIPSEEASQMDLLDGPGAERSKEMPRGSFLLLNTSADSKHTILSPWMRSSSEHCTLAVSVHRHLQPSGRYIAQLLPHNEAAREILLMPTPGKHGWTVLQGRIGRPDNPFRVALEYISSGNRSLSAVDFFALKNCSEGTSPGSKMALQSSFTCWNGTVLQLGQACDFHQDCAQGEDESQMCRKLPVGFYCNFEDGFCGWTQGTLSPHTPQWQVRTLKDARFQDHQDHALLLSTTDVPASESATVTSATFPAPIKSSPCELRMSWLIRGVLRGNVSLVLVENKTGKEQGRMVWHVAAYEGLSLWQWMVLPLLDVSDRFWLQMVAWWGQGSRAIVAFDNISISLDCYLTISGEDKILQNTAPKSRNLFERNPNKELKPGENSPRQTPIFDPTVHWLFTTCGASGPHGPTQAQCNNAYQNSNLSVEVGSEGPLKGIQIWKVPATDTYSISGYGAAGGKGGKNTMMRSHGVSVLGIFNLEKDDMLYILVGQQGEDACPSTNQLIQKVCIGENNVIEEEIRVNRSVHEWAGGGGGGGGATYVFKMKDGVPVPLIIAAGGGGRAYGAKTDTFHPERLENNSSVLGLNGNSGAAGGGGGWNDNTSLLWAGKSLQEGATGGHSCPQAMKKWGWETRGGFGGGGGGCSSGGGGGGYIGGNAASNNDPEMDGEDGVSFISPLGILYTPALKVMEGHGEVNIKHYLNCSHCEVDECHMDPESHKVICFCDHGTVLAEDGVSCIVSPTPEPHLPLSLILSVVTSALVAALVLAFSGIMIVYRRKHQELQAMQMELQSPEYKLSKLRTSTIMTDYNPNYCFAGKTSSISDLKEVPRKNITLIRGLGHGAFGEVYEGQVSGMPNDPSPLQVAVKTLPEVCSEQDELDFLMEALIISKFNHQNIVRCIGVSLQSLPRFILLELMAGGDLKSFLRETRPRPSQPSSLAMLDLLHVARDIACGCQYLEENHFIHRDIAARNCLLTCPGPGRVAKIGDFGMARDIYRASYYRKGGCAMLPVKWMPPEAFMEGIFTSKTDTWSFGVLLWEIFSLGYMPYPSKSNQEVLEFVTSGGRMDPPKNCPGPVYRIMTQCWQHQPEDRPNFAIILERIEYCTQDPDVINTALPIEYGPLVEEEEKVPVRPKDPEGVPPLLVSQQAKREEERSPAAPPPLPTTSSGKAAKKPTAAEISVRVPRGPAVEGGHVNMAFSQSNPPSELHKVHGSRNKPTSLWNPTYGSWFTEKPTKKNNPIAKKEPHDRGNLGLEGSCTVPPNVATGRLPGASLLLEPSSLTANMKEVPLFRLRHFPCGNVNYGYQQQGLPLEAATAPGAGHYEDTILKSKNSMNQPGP
baculovirus-expressed JAK2 kinase, sequence (O60674 whole entry): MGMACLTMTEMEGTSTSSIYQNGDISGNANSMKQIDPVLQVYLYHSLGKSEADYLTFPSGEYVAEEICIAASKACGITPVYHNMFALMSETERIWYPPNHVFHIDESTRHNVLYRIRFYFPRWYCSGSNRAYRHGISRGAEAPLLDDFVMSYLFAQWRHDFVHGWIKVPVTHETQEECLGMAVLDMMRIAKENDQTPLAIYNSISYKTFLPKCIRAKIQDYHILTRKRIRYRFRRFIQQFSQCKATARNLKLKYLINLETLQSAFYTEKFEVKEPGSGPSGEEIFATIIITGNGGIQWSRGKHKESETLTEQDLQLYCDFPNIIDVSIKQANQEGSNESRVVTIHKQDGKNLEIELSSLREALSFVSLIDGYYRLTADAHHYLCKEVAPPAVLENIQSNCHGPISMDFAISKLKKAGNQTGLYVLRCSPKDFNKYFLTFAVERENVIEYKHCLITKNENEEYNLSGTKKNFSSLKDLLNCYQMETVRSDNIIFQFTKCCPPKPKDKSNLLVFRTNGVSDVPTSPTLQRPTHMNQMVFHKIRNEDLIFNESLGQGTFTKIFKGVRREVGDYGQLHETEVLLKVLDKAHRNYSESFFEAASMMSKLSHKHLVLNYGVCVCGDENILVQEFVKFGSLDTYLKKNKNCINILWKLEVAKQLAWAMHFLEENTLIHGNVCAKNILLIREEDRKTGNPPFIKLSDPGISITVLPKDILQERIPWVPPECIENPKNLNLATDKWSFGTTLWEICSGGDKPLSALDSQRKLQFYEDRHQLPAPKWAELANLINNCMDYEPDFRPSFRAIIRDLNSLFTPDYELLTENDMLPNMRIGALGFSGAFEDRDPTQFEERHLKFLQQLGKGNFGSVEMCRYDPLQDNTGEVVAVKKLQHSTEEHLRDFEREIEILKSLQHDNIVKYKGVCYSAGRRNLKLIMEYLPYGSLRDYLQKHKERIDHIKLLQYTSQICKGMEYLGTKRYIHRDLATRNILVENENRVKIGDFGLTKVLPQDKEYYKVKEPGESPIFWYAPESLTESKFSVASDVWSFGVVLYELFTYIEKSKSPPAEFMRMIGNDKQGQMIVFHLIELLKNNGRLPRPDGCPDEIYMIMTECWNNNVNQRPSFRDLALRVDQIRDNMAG

| Compound | pIC50 [1] | pIC50 [2] |
| --- | --- | --- |
| NC(=O)[C@@H]1[C@H](Nc2c(Cl)cnc3[nH]c(-c4ccc(OCC(=O)O)cc4)nc23)[C@H]2C=C[C@@H]1C2 [Compound CCXLVI, 2-(4-(7-((1R,2R,3S,4S)-3-carbamoylbicyclo[2.2.1]hept-5-en-2-ylamino)-6-chloro-3H-imidazo[4,5-b]pyridin-2-yl)phenoxy)acetic acid] | 6.00 to 7.00 | > 7.00 |
| CN(C)CCOc1cccc(-c2nc3c(N[C@H]4[C@@H](C(N)=O)[C@@H]5C=C[C@H]4C5)c(Cl)cnc3[nH]2)c1 [Compound CCXLVII, (1S,2S,3R,4R)-3-(6-chloro-2-(3-(2-(dimethylamino)ethoxy)phenyl)-3H-imidazo[4,5-b]234yridine-7-ylamino)pyridin[2.2.1]hept-5-ene-2-carboxamide] | > 7.00 | > 7.00 |
| CN1CCC(Oc2cccc(-c3nc4c(N[C@H]5[C@@H](C(N)=O)[C@@H]6C=C[C@H]5C6)c(Cl)cnc4[nH]3)c2)CC1 [Compound CCXLVIII, (1S,2S,3R,4R)-3-(6-chloro-2-(3-(1-methylpiperidin-4-yloxy)phenyl)-3H-imidazo[4,5-b]pyridin-7-ylamino)bicyclo[2.2.1]hept-5-ene-2-carboxamide] | > 7.00 | > 7.00 |
| CC(C)(C)OC(=O)N1CCC(c2nc3c(N[C@H]4[C@@H](C(N)=O)[C@@H]5C=C[C@H]4C5)c(Cl)cnc3[nH]2)CC1 [Compound CCXV, tert-butyl 4-(7-((1R,2R,3S,4S)-3-carbamoylbicyclo[2.2.1]hept-5-en-2-ylamino)-6-chloro-3H-imidazo[4,5-b]pyridin-2-yl)piperidine-1-carboxylate] | 5.00 to 6.00 | 5.00 to 6.00 |
| NC(=O)[C@@H]1[C@H](Nc2c(Cl)cnc3[nH]c(-c4cccc(C(=O)O)c4)nc23)[C@H]2C=C[C@@H]1C2 [Compound CCXVII, 3-(7-((1R,2R,3S,4S)-3-carbamoylbicyclo[2.2.1]hept-5-en-2-ylamino)-6-chloro-3H-imidazo[4,5-b]pyridin-2-yl)benzoic acid] | 5.00 to 6.00 | > 7.00 |
| NC(=O)[C@@H]1[C@H](Nc2c(Cl)cnc3[nH]c(-c4ccc(C(=O)O)cc4)nc23)[C@H]2C=C[C@@H]1C2 [Compound CCXVIII, 4-(7-((1R,2R,3S,4S)-3-carbamoylbicyclo[2.2.1]hept-5-en-2-ylamino)-6-chloro-3H-imidazo[4,5-b]pyridin-2-yl)benzoic acid] | 6.00 to 7.00 | > 7.00 |
| NC(=O)[C@@H]1[C@H](Nc2c(Cl)cnc3[nH]c(-c4ccc(C(=O)N5CCNCC5)cc4)nc23)[C@H]2C=C[C@@H]1C2 [Compound CCXX, (1S,2S,3R,4R)-3-(6-chloro-2-(4-(piperazine-1-carbonyl)phenyl)-3H-imidazo[4,5-b]pyridin-7-ylamino)bicyclo[2.2.1]hept-5-ene-2-carboxamide] | > 7.00 | > 7.00 |
| CN1CCN(C(=O)c2cccc(-c3nc4c(N[C@H]5[C@@H](C(N)=O)[C@@H]6C=C[C@H]5C6)c(Cl)cnc4[nH]3)c2)CC1 [Compound CCXXI, (1S,2S,3R,4R)-3-(6-chloro-2-(3-(4-methylpiperazine-1-carbonyl)phenyl)-3H-imidazo[4,5-b]pyridin-7-ylamino)bicyclo[2.2.1]hept-5-ene-2-carboxamide] | 6.00 to 7.00 | > 7.00 |
| CN1CCN(C(=O)c2ccc(-c3nc4c(N[C@H]5[C@@H](C(N)=O)[C@@H]6C=C[C@H]5C6)c(Cl)cnc4[nH]3)cc2)CC1 [Compound CCXXII, (1S,2S,3R,4R)-3-(6-chloro-2-(4-(4-methylpiperazine-1-carbonyl)phenyl)-3H-imidazo[4,5-b]pyridin-7-ylamino)bicyclo[2.2.1]hept-5-ene-2-carboxamide] | > 7.00 | > 7.00 |
| NC(=O)[C@@H]1[C@H](Nc2c(Cl)cnc3[nH]c(-c4ccc(C(=O)N5CCNC(C(=O)O)C5)cc4)nc23)[C@H]2C=C[C@@H]1C2 (stereo partly drawn) [Compound CCXXVI, 4-(4-(7-((1R,2R,3S,4S)-3-carbamoylbicyclo[2.2.1]hept-5-en-2-ylamino)-6-chloro-3H-imidazo[4,5-b]211pyridine-2-yl)benzoyl)piperazine-2-carboxylic acid] | > 7.00 | > 7.00 |
| NC(=O)[C@@H]1[C@H](Nc2c(Cl)cnc3[nH]c(-c4cccc(C(=O)NCC(=O)O)c4)nc23)[C@H]2C=C[C@@H]1C2 [Compound CCXXVII, 2-(3-(7-((1R,2R,3S,4S)-3-carbamoylbicyclo[2.2.1]hept-5-en-2-ylamino)-6-chloro-3H-imidazo[4,5-b]213yridine-2-yl)benzamido)acetic acid] | 5.00 to 6.00 | > 7.00 |
| CN(C)CCNC(=O)c1cccc(-c2nc3c(N[C@H]4[C@@H](C(N)=O)[C@@H]5C=C[C@H]4C5)c(Cl)cnc3[nH]2)c1 [Compound CCXXXI, (1S,2S,3R,4R)-3-(6-chloro-2-(3-(2-(dimethylamino)ethylcarbamoyl)phenyl)-3H-imidazo[4,5-b]pyridine-7-ylamino)pyridin[2.2.1]hept-5-ene-2-carboxamide] | > 7.00 | > 7.00 |
| CN(C)CCNC(=O)c1ccc(-c2nc3c(N[C@H]4[C@@H](C(N)=O)[C@@H]5C=C[C@H]4C5)c(Cl)cnc3[nH]2)cc1 [Compound CCXXXII, (1S,2S,3R,4R)-3-{6-Chloro-2-[4-(2-dimethylamino-ethylcarbamoyl)-phenyl]-3H-imidazo[4,5-b]pyridine-7-ylamino}-bicyclo[2.2.1]hept-5-ene-2-carboxylic acid amide] | > 7.00 | > 7.00 |
| NC(=O)[C@@H]1[C@H](Nc2c(Cl)cnc3[nH]c(-c4cccc(O)c4)nc23)[C@H]2C=C[C@@H]1C2 [Compound CCXXXIII, (1S,2S,3R,4R)-3-(6-chloro-2-(3-hydroxyphenyl)-3H-imidazo[4,5-b]pyridin-7-ylamino)pyridin[2.2.1]hept-5-ene-2-carboxamide] | 6.00 to 7.00 | > 7.00 |
| NC(=O)[C@@H]1[C@H](Nc2c(Cl)cnc3[nH]c(-c4ccc(O)cc4)nc23)[C@H]2C=C[C@@H]1C2 [Compound CCXXXIV, (1S,2S,3R,4R)-3-(6-chloro-2-(4-hydroxyphenyl)-3H-imidazo[4,5-b]pyridin-7-ylamino)bicyclo[2.2.1]hept-5-ene-2-carboxamide] | 6.00 to 7.00 | > 7.00 |
| NC(=O)[C@@H]1[C@H](Nc2c(Cl)cnc3[nH]c(-c4ccc(OCCN5CCOCC5)cc4)nc23)[C@H]2C=C[C@@H]1C2 [Compound CCXXXIX, (1S,2S,3R,4R)-3-(6-chloro-2-(4-(2-morpholinoethoxy)phenyl)-3H-imidazo[4,5-b]pyridin-7-ylamino)bicyclo[2.2.1]hept-5-ene-2-carboxamide] | > 7.00 | > 7.00 |
| NC(=O)[C@@H]1[C@H](Nc2c(Cl)cnc3[nH]c(-c4cccc(OCCN5CCOCC5)c4)nc23)[C@H]2C=C[C@@H]1C2 [Compound CCXXXVII, (1S,2S,3R,4R)-3-(6-chloro-2-(3-(2-morpholinoethoxy)phenyl)-3H-imidazo[4,5-b]pyridine-7-ylamino)pyridin[2.2.1]hept-5-ene-2-carboxamide] | > 7.00 | > 7.00 and 6.00 to 7.00 |
| NC(=O)COc1cccc(-c2nc3c(N[C@H]4[C@@H](C(N)=O)[C@@H]5C=C[C@H]4C5)c(Cl)cnc3[nH]2)c1 [Compound CCXXXVIII, (1S,2S,3R,4R)-3-(2-(3-(2-amino-2-oxoethoxy)phenyl)-6-chloro-3H-imidazo[4,5-b]pyridin-7-ylamino)bicyclo[2.2.1]hept-5-ene-2-carboxamide] | 6.00 to 7.00 | > 7.00 |
| CN1CCC(c2nc3c(N[C@H]4[C@@H](C(N)=O)[C@@H]5C=C[C@H]4C5)c(Cl)cnc3[nH]2)CC1 [Compound CL, (1S,2S,3R,4R)-3-[6-Chloro-2-(1-methyl-piperidin-4-yl)-3H-imidazo[4,5-b]pyridin-7-ylamino]-bicyclo[2.2.1]hept-5-ene-2-carboxylic acid amide] | 5.00 to 6.00 | < 5.00 |
| Cc1nn(C)c(C)c1-c1nc2c(N[C@H]3[C@@H](C(N)=O)[C@@H]4C=C[C@H]3C4)c(Cl)cnc2[nH]1 [Compound CLI, (1S,2S,3R,4R)-3-[6-Chloro-2-(1,3,5-trimethyl-1H-pyrazol-4-yl)-3H-imidazo[4,5-b]pyridin-7-ylamino]-bicyclo[2.2.1]hept-5-ene-2-carboxylic acid amide] | > 7.00 | > 7.00 |
| Cc1nn(C)c(C)c1-c1nc2c(N[C@H]3[C@@H](C(N)=O)[C@@H]4C=C[C@H]3C4)c(Br)cnc2[nH]1 [Compound CLII, (1S,2S,3R,4R)-3-[6-Bromo-2-(1,3,5-trimethyl-1H-pyrazol-4-yl)-3H-imidazo[4,5-b]pyridin-7-ylamino]-bicyclo[2.2.1]hept-5-ene-2-carboxylic acid amide] | > 7.00 | > 7.00 |
| CN(C)c1nc(Cl)c(-c2nc3c(N[C@H]4[C@@H](C(N)=O)[C@@H]5C=C[C@H]4C5)c(Cl)cnc3[nH]2)s1 [Compound CLIV, (1S,2S,3R,4R)-3-[6-Chloro-2-(4-chloro-2-dimethylamino-thiazol-5-yl)-3H-imidazo[4,5-b]pyridin-7-ylamino]-bicyclo[2.2.1]hept-5-ene-2-carboxylic acid amide] | > 7.00 | > 7.00 |
